Broadly, the IC50 is the point on the concentration scale where inhibition reaches its midpoint.

Molecules are shown by their SMILES.

The assay has as its target C5aR (Homo sapiens (Human), UniProt P21730). Briefly: Chemotaxis assay using U937 cells (C5aR mediated migration). The class given is cell-based. The note with it: read-out: Mig IC50. The procedure, abridged: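 U937 monocytic cells, pretreated overnight with 0.5 mM cyclic AMP, placed at 100,000 cells in the upper well above 5 μm polycarbonate filters. Lower well held 0.03 nM C5a plus compound in HBSS/1% FBS; after 1.5 h at 37° C migrated cells counted directly or by CyQuant, giving IC50.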

Chain of C5aR (P21730 whole entry): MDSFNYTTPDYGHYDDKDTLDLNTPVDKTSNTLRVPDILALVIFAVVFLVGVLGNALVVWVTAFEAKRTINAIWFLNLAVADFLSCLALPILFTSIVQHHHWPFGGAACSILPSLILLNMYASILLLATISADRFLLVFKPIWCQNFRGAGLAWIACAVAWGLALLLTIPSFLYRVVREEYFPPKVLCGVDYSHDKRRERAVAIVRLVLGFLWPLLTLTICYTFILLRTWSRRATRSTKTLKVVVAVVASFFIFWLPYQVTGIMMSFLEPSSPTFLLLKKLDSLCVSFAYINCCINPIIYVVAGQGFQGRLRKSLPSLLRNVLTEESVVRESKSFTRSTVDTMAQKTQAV

Consider `Cc1cccc(OCC(C)C)c1-n1nc2c(c1-c1ccc(C(C)(C)O)cc1)CN(c1ccccc1C(C)(C)C)CC2` [Example 1.449], for which the IC50 is more than 500 nM.

As to `Cc1cc(F)c(C(C)C)cc1N1CCc2nn(-c3c(C)cccc3OCC(C)C)c(-c3ccc(NC(N)=O)cc3)c2C1` [Example 1.427], the IC50 is not above 5 nM.

As for `Cc1cccc(OCC(C)C)c1-n1nc2c(c1-c1ccc(NC(N)=O)cc1)CN(c1cnc(C(F)(F)F)cn1)CC2` [Example 1.341], the IC50 is 5 to 50 nM.

`CCc1cccc(CC)c1-n1nc2c(c1-c1cc(F)c(NC(N)=O)cc1F)CN(Cc1ccc(C(F)(F)F)cc1Cl)CC2` [Example 1.057]: the IC50 is not above 5 nM.

Consider `CCc1cccc(CC)c1-n1nc2c(c1-c1ccc(NC(N)=O)cc1)CN(Cc1c(C)cccc1C)CC2` [Example 1.290], for which the IC50 was 5 to 50 nM.

As for `CCc1cccc(CC)c1-n1nc2c(c1-c1ccc(NC(N)=O)cc1)CN(c1ncc(C(F)(F)F)cc1F)CC2` [Example 1.301], the IC50 lay within 5 to 50 nM.

`CCc1cccc(CC)c1-n1nc2c(c1-c1cc(F)c(NC(N)=O)cc1OC)CN(c1ncc(Cl)cc1Cl)CC2` [Example 1.147]: the IC50 is not above 5 nM.

On to `CCc1cccc(C)c1-n1nc2c(c1-c1ccc(NC(N)=O)cc1)CN(C(=O)OC(C)(C)C)CC2` [Example 1.399], for which the IC50 lay within 50 to 500 nM.

As to `Cc1cccc(OCC(C)C)c1-n1nc2c(c1-c1ccc(NC(N)=O)cc1)CN(Cc1ccc(Cl)cc1Cl)CC2` [Example 1.328], the IC50 is not above 5 nM.

As to `Cc1cccc(C)c1-n1nc2c(c1-c1cc(F)c(NC(=O)CN)cc1F)CN(c1ncc(Cl)cc1Cl)CC2` [Example 1.116], the IC50 was more than 500 nM.

Turning to `CCc1cccc(CC)c1-n1nc2c(c1-c1cc(F)c(NC(N)=O)cc1F)CN(C(=O)OC(C)(C)C)[C@H](C)C2` [Example 1.025], the IC50 is not above 5 nM.

On to `CC(C)COc1cccc(F)c1-n1nc2c(c1-c1cc(F)c(NC(N)=O)cc1F)CN(C(C)(C)c1ccccc1)CC2` [Example 1.198], for which the IC50 was not above 5 nM.

Turning to `CCc1cccc(CC)c1-n1nc2c(c1-c1cc(F)c(NC(N)=O)cc1F)CN(CC(C)(C)C(F)(F)F)CC2` [Example 1.001], the IC50 is not above 5 nM.

For `CC[C@H](c1ccccc1)N1CCc2nn(-c3c(C)cccc3C)c(-c3cc(F)c(NC(N)=O)cc3F)c2C1` [Example 1.100], the IC50 was not above 5 nM.

Turning to `Cc1cccc(OCC(C)C)c1-n1nc2c(c1-c1ccc(NC(N)=O)cc1)CN(Cc1cc(Cl)ccc1OC(C)C)CC2` [Example 1.280], the IC50 fell in the range of 5 to 50 nM.

With `Cc1cccc(OCC(C)C)c1-n1nc2c(c1-c1cc(F)c(NC(N)=O)cc1F)CN(c1ncc(C(F)(F)F)cn1)CC2` [Example 1.164], the IC50 was not above 5 nM.

For `CC(C)COc1ccccc1-n1nc2c(c1-c1cc(F)c(NC(N)=O)cc1F)CN(c1ncc(Cl)cc1Cl)CC2` [Example 1.189], the IC50 was not above 5 nM.

As for `CCc1cccc(CC)c1-n1nc2c(c1-c1cc(F)c(NC(N)=O)cc1F)CN(Cc1ccc(F)cc1C(F)(F)F)C(C)(C)C2` [Example 1.012], the IC50 is not above 5 nM.

As to `CCc1cccc(CC)c1-n1nc2c(c1-c1cc(F)c(NC(N)=O)cc1F)CN(C(CC)c1ccccc1C(F)(F)F)CC2` (centres unmarked) [Example 1.144], the IC50 is not above 5 nM.

In the case of `Cc1cccc(C)c1-n1nc2c(c1-c1cc(F)c(NC(N)=O)cc1F)CN(c1ccc(C(F)(F)F)cc1F)CC2` [Example 1.122], the IC50 was not above 5 nM.

For `CCc1cccc(CC)c1-n1nc2c(c1-c1cc(F)c(NC(N)=O)cc1F)CN(Cc1ccc(C(F)(F)F)cc1C(F)(F)F)[C@H](C)C2` [Example 1.022], the IC50 is not above 5 nM.

Consider `Cc1cccc(OCC(C)C)c1-n1nc2c(c1-c1ccc(NC(N)=O)c(F)c1)CN(CC1CCCCC1)CC2` [Example 1.256], for which the half-maximal inhibitory concentration (IC50) is not above 5 nM.

`Cc1cccc(OCC(C)C)c1-n1nc2c(c1-c1ccc(NC(N)=O)cc1)CN(c1ccc(C(F)(F)F)cc1C(F)(F)F)CC2` [Example 1.343]: the IC50 is not above 5 nM.

Consider `Cc1cccc(OCC(C)C)c1-n1nc2c(c1-c1ccc(NC(N)=O)cc1)CN(c1ccc(C(F)(F)F)cc1F)CC2` [Example 1.378], for which the IC50 fell in the range of 5 to 50 nM.

For the compound `Cc1cccc(OCC(C)C)c1-n1nc2c(c1-c1cc(F)c(NC(N)=O)cc1F)CN(c1ccc(Cl)cn1)CC2` [Example 1.182], the IC50 was not above 5 nM.

As for `CCc1cccc(CC)c1-n1nc2c(c1-c1cc(F)c(NC(N)=O)cc1F)CN(Cc1ccc(C(F)(F)F)cc1C)CC2` [Example 1.064], the IC50 was not above 5 nM.

As to `Cc1cccc(C)c1-n1nc2c(c1-c1ccc(N)cc1)CN(c1ccccc1C(C)C)CC2` [Example 1.481], the IC50 fell in the range of 5 to 50 nM.

For `Cc1cccc(OCC(C)C)c1-n1nc2c(c1-c1ccc(C(N)=O)cc1)CN(c1ccccc1C(C)(C)C)CC2` [Example 1.453], the IC50 lay within 5 to 50 nM.

For the compound `CCc1cccc(CC)c1-n1nc2c(c1-c1cc(F)c(NC(N)=O)cc1F)CN(Cc1ccc(C(F)(F)F)cc1)C(C)(C)C2` [Example 1.017], the IC50 is not above 5 nM.

As to `Cc1cccc(OCC(C)C)c1-n1nc2c(c1-c1cc(F)c(NC(N)=O)cc1F)CN(c1ncc(F)cc1Cl)CC2` [Example 1.169], the IC50 was not above 5 nM.

In the case of `Cc1cccc(OCC(C)C)c1-n1nc2c(c1-c1ccc(NC(N)=O)c(Cl)c1)CN(c1ncc(C(F)(F)F)cc1F)CC2` [Example 1.275], the IC50 is not above 5 nM.

As for `Cc1cccc(OCC(C)C)c1-n1nc2c(c1-c1ccc(NC(N)=O)cc1)CN(C(=O)C(C)(C)C)CC2` [Example 1.436], the IC50 lay within 50 to 500 nM.

Turning to `CCc1cccc(CC)c1-n1nc2c(c1-c1ccc(NC(N)=O)cc1)CN(Cc1cc(Cl)ccc1OC(C)C)CC2` [Example 1.284], the IC50 lay within 5 to 50 nM.

Consider `Cc1cc(N)ccc1-c1c2c(nn1-c1c(C)cccc1C)CCN(c1ccccc1C(C)C)C2` [Example 1.468], for which the IC50 lay in the range of 50 to 500 nM.

In the case of `COc1cccc(C)c1-n1nc2c(c1-c1ccc(NC(N)=O)cc1)CN(c1ccccc1C(C)(C)C)CC2` [Example 1.456], the IC50 was in the range of 5 to 50 nM.

On to `CCC(CC)N1CCc2nn(-c3c(C)cccc3OCC(C)C)c(-c3ccc(NC(N)=O)c(F)c3)c2C1` [Example 1.255], for which the IC50 is not above 5 nM.

For the compound `Cc1cnc(N2CCc3nn(-c4c(C)cccc4OCC(C)C)c(-c4ccc(NC(N)=O)c(F)c4)c3C2)c(F)c1` [Example 1.224], the IC50 is not above 5 nM.

Turning to `Cc1cc(C(C)C)cnc1N1CCc2nn(-c3c(C)cccc3OCC(C)C)c(-c3cc(F)c(NC(N)=O)cc3F)c2C1` [Example 1.185], the IC50 is not above 5 nM.

Consider `Cc1cccc(C)c1-n1nc2c(c1-c1cc(F)c(NC(N)=O)cc1F)CN(Cc1ccc(C(F)(F)F)cc1C(F)(F)F)CC2` [Example 1.060], for which the IC50 fell in the range of 5 to 50 nM.

Turning to `CC(C)COc1cccc(F)c1-n1nc2c(c1-c1cc(F)c(NC(N)=O)cc1F)CN(c1ncc(C(F)(F)F)cc1F)CC2` [Example 1.203], the IC50 is not above 5 nM.

On to `Cc1cccc(OCC(C)C)c1-n1nc2c(c1-c1ccc(NC(N)=O)cc1)CN(c1ccc(C(F)(F)F)cc1)CC2` [Example 1.407], for which the IC50 is 5 to 50 nM.

Turning to `Cc1cc(NC(N)=O)c(F)cc1-c1c2c(nn1-c1c(C)cccc1OCC(C)C)CCN(c1ncc(C(F)(F)F)cc1F)C2` [Example 1.211], the IC50 is not above 5 nM.

Turning to `Cc1cccc(C)c1-n1nc2c(c1-c1cc(F)c(NC(N)=O)cc1F)CN(Cc1ccc(Cl)cc1C(F)(F)F)CC2` [Example 1.061], the IC50 was not above 5 nM.

In the case of `COc1cccc(C)c1-n1nc2c(c1-c1ccc(NC(C)C)cc1)CN(c1ccccc1C)CC2` [Example 1.489], the IC50 was more than 500 nM.

As for `CCc1cccc(CC)c1-n1nc2c(c1-c1cc(F)c(NC(N)=O)cc1F)CN(Cc1ccc(C(F)(F)F)cc1)CC2` [Example 1.065], the IC50 is not above 5 nM.

As for `Cc1cccc(OCC(C)C)c1-n1nc2c(c1-c1ccc(NC(N)=O)cc1)CN(Cc1cc(F)ccc1Cl)CC2` [Example 1.320], the IC50 was not above 5 nM.

For `Cc1cccc(OCC(C)C)c1-n1nc2c(c1-c1ccc(NC(N)=O)c(F)c1)CN(c1nc(Cl)ns1)CC2` [Example 1.246], the IC50 was in the range of 5 to 50 nM.

`Cc1ccc(C(F)(F)F)cc1N1CCc2nn(-c3c(C)cccc3OCC(C)C)c(-c3ccc(NC(N)=O)cc3)c2C1` [Example 1.418]: the IC50 lay in the range of 5 to 50 nM.

Turning to `CCc1cccc(CC)c1-n1nc2c(c1-c1cc(F)c(NC(C)=O)cc1F)CN(Cc1ccc(C(F)(F)F)cc1C(F)(F)F)CC2` [Example 1.006], the IC50 is 5 to 50 nM.

As for `CCc1cccc(CC)c1-n1nc2c(c1-c1cc(F)c(NC(N)=O)cc1F)CN(CC)C(C)(C)C2` [Example 1.009], the IC50 was in the range of 5 to 50 nM.

With `CCc1cccc(CC)c1-n1nc2c(c1-c1cc(F)c(NC(N)=O)cc1F)CN(Cc1ccc(Cl)cc1C(F)(F)F)[C@@H](C)C2` [Example 1.015], the half-inhibitory concentration (IC50) was not above 5 nM.

Turning to `CCc1cccc(CC)c1-n1nc2c(c1-c1cc(F)c(NC(N)=O)cc1C)CN(Cc1ccc(C(F)(F)F)cc1C(F)(F)F)CC2` [Example 1.068], the concentration for half-maximal inhibition (IC50) is not above 5 nM.

As to `COCC(c1ccccc1)N1CCc2nn(-c3c(C)cccc3OCC(C)C)c(-c3cc(F)c(NC(N)=O)cc3F)c2C1` (centres unmarked) [Example 1.131], the IC50 was not above 5 nM.

Take `COc1cc(NC(N)=O)c(F)cc1-c1c2c(nn1-c1c(C)cccc1C)CCN(c1ccc(Cl)cc1Cl)C2` [Example 1.114]: the IC50 is not above 5 nM.

Consider `Cc1cccc(OCC(C)C)c1-n1nc2c(c1-c1ccc(NC(N)=O)cc1)CN(CCC(C)(C)C)CC2` [Example 1.393], for which the IC50 lay in the range of 50 to 500 nM.

As for `CC(C)(c1ccccc1)N1CCc2nn(-c3ccccc3OC(F)(F)F)c(-c3cc(F)c(NC(N)=O)cc3F)c2C1` [Example 1.138], the IC50 was not above 5 nM.

As for `Cc1cccc(C)c1-n1nc2c(c1-c1cc(F)c(NC(N)=O)cc1F)CN(c1ncc(C3CC3)cc1F)CC2` [Example 1.089], the IC50 was not above 5 nM.

Consider `Cc1cccc(OCC(C)C)c1-n1nc2c(c1-c1ccc(NC(N)=O)cc1)CN(Cc1cc(Cl)ccc1C(F)(F)F)CC2` [Example 1.325], for which the IC50 is not above 5 nM.

Turning to `Cc1cccc(C(C)C)c1-n1nc2c(c1-c1ccc(NC(N)=O)cc1)CN(C(=O)OC(C)(C)C)CC2` [Example 1.428], the IC50 was in the range of 50 to 500 nM.

For the origin of these results see patent US11478460B2, “Diaryl substituted 6,5-fused ring compounds as C5aR inhibitors” (CHEMOCENTRYX, INC., priority 2017, dated 2022).
